Measured values from patent publication US7321046B2, “Analogs of dictyostatin, intermediates therefor and methods of synthesis thereof” (University of Pittsburgh, priority 2002, dated 2008).
Read-outs that look alike come from different tables or passages of the source.

What was measured:
[1] = tested on: human ovarian carcinoma cells (1A9); assay: Antiproliferative assay (GI50, MTS); assay type: cell-based; conditions: for antiproliferative potency / GI50 values (in words): Table 1 (1A9 and mutant lines)
Method: Representative analogs were examined for their antiproliferative activities against human ovarian carcinoma 1A9 cells and their paclitaxel-resistant mutants, 1A9/Ptx10 and 1A9/Ptx22.
[…] Cells were maintained in RPMI medium with 10% FBS in it, plated in tissue culture plates, and allowed to grow for 48-72 h before transferring them into 96-well plates. Cells were allowed to attach and grow for 48 h in 96-well plates after which they were treated with either control (DMSO) or drug in triplicate/quadruplicate. Cells were incubated with the compounds for 72 h. Cells were treated with MTS reagent before reading the plate in a Dynamax plate reader for determining the cell number. The fifty percent growth inhibition values (GI50 values) were calculated for the compounds against all the three cell lines.

[2] = tested on: microtubules (tubulin polymer); assay: Radiolabeled ligand binding assays; conditions: for potency relative to 1 in inhibiting the binding of radiolabeled paclitaxel to microtubules: relative to dictyostatin 1
Method: The abilities of test agents to inhibit the binding of radiolabeled forms of the microtubule stabilizers paclitaxel, discodermolide and epothilone B from tubulin polymer were determined.
[^3H]Paclitaxel, [^3H]discodermolide and [^14C]epothilone B solutions were prepared as 125 μM stock solutions in 50% DMSO. Radiolabeled compound (final concentration, 4.0 μM) and test agents at final concentrations noted in the text and tables were mixed in 50 μL of 4:1 (v/v) 0.75 M aqueous MSG/DMSO and warmed to 37° C. Meanwhile, a reaction mixture containing 0.75 M MSG, 2.5 μM tubulin, and 25 μM ddGTP was prepared and incubated at 37° C. for 30 min to form microtubuless. A 200 μL aliquot of the microtubule mixture was added to the drug mixtures, and incubation continued for 30 min at 37° C. Reaction mixtures were centrifuged in an Eppendorf 5417C centrifuge at 14,000 rpm for 20 min at room temperature. Radiolabel in the supernatants (100 μL) was determined by scintillation spectrometry.

[3] = tested on: purified bovine brain tubulin; assay: Tubulin polymerization assay (turbidity); assay type: biochemical; conditions: tubulin 1 mg/mL ± MAPs ± GTP, agents at 10 and 40 μM, 0 to 30° C.
Method: The abilities of the new compounds to cause tubulin polymerization were determined under reaction conditions consisting of purified bovine brain tubulin (1 mg/mL) in the presence or absence of microtubule-associated proteins (MAPs, 0.75 mg/mL) and GTP (100 μM). Test agents were initially screened at 10 and 40 μM. In these experiments, test agent-induced assembly of soluble tubulin into polymer, with respect to the presence and absence of cofactors and at different temperatures, was monitored in a multi-cuvette, temperature-controlled spectrophotometer via development of turbidity in the solution. The initial temperature was closely controlled at 0° C., then rapidly raised to 10° C., to 20° C., then finally to 30° C. to determine both the temperature at which a test agent induced assembly as well as the extent of agent-induced assembly. The temperature increases were followed by a rapid decrease in temperature back to 0° C. to determine the cold-stability of polymer formed.
Tubulin assembly was monitored turbidimetrically in Gilford 250 spectrophotometers equipped with electronic temperature controllers as described previously (ter Haar et al., 1996). The reaction mixtures without the compounds consisted of tubulin (1 mg/ml), heat-treated MAPs (0.75 mg/ml, if present), GTP (100 μM, if present), and 0.1M (4-morpholinyl)ethane sulfonate (MeS). Baselines were established after addition of all reaction components except the compounds to the cuvettes held at 0° C. Compounds, at 10 μM or 40 μM final concentration, were then added and each reaction mixture (0.25 mL final volume) was subjected to the indicated temperature changes.

HeLa cells = assay: Multiparameter fluorescence high information content analysis of cellular effects; assay type: cell-based; set-up: unit not given here; conditions: 24 h treatment; for Minimum detectable cellular change, Nuclear condensation: Hoechst 33342
Method: HeLa cells were plated on collagen-coated 384-well microtiter plates, allowed to attach, then treated for 24 h with test agents. Test agent concentrations began at 1 μM, and two-fold dilutions were made to levels below 1 nM. After the treatment period, the cells were fixed with formalin and their chromatin stained with Hoechst 33342. Cells were permeabilized and treated with primary antibodies for α-tubulin and phosphohistone H3, and then with fluorophore-labeled secondary antibodies. The three fluorescent channels were then examined on an ArrayScan II, which gives quantitative pixel distribution and density information in each channel on a per cell basis.
HeLa cells growing at log phase were trypsinized and plated in 40 μL at a density of 7,000-8,000 cells per well in calf skin collagen I-coated 384-well plates (Falcon #3962; Fisher Scientific). Cells were exposed to test agents or 0.5% DMSO within 2-8 h of plating. Concentrated DMSO stock solutions of all test agents were diluted into solutions of HBSS medium plus 10% FBS and added to the microplate wells (10 μL per well), using an automated liquid handling system (Biomek® 2000; Beckman-Coulter, Inc.) to provide a serial 2-fold dilution of each test agent. The cells were incubated in the presence of test agents for 24 h. At the end of the incubation, the medium was removed and replaced with HBSS containing 4% formaldehyde and 10 μg/mL Hoechst 33342 (25 μL/well) to fix the cells and fluorescently label their chromatin. After incubation at room temperature for 20-30 min, the solution was removed from each well and replaced with HBSS (100 μL/well). Further reagent additions were made to the microplates using the Biomek 2000. After removing the HBSS from each well, cells were permeabilized for 5 min at room temperature with 0.5% (w/w) Triton X-100 in HBSS (10 μL/well). This step extracts a fraction of the soluble cellular components, including soluble tubulin. The wells were washed with HBSS (100 μL/well), followed by addition of a primary antibody solution containing mouse anti-α-tubulin (1:3000) and rabbit anti-phosphohistone H3 (1:500) in HBSS (10 μL/well). After 1 h at room temperature, the wells were washed with HBSS as above, followed by the addition of a secondary antibody solution containing fluorescein-5-isothiocyanate (FITC)-labeled donkey anti-mouse (1:300) and Cy3-labeled donkey anti-rabbit (1:300) antibodies diluted in HBSS (10 μL/well). After 1 h at room temperature, the wells were washed as above, and HBSS was added (100 μL/well). The plates were placed in an ArrayScan® HCS Reader with the Target Activation BioApplication Software coupled to Cellomics® Store and the vHCS™ Discovery Toolbox (Cellomics, Inc.) to analyze images. Briefly, the instrument was used to scan multiple optical fields, each with multiparameter fluorescence, within a subset of the wells of the 384-well microplate. The BioApplication software produced multiple numerical feature values, such as subcellular object intensities, shapes, and location for each cell within an optical field. […] A nuclear mask was generated from Hoechst 33342-stained nuclei, and object identification thresholds and shape parameters were set such that the algorithm identified over 90% of the nuclei in each field. Objects that touched each other or the edge of the image were excluded from the analysis. Tubulin mass was defined as the average green (FITC) pixel intensity in an area defined by the Hoechst-defined nuclear mask. This cytoplasmic area around the nucleus contains cytoskeletal components is a region from which sensitive measurements of cytoplasmic characteristics can be made.

[4] = Homo sapiens, Ovarian carcinoma cell, 72 h, read-out: GI50 ± S.D., 1A9 parental cells, 72 h incubation
[5] = test agent 4 μM, radiolabel 4.0 μM, 37° C.

Structure (SMILES) | GI50 [1, 4] | Percent inhibition of radiolabel from microtubules, [3H]Paclitaxel [2, 5] | Percent inhibition of radiolabel from microtubules, [14C]Epothilone B [2, 5] | test agent-induced tubulin assembly, turbidity profile (in words) [3] | Minimum detectable cellular change, Phosphohistone H3 (HeLa cells) | Minimum detectable cellular change, Tubulin polymer intensity (HeLa cells) | Minimum detectable cellular change, Nuclear condensation (HeLa cells) | antiproliferative potency / GI50 values (in words) [1] | potency relative to 1 in inhibiting the binding of radiolabeled paclitaxel to microtubules [2] | Percent inhibition of radiolabel from microtubules, [3H]Discodermolide [2, 5] | GI50 ([1]; read-out: GI50 ± S.D., 1A9 parental cells, 72 h incubation)
C=C/C=C\[C@H](C)[C@H](OC(N)=O)[C@@H](C)[C@H](O)[C@@H](C)C/C(C)=C\[C@H](C)[C@@H](O)[C@@H](C)/C=C\[C@@H](O)C[C@@H]1OC(=O)[C@H](C)[C@@H](O)[C@H]1C [discodermolide, reference compound] | 1.7 ± 1.2 nM | 76 ± 6 (4) % | 90 ± 1 (3) % | far more potent than those of paclitaxel | 38.4 ± 21.9 (2) | 64.6 ± 0.0 (2) | 62.5 (1) |  |  |  | 
C=C/C=C\[C@H](C)[C@H](O)[C@@H](C)[C@H](O)CC[C@H](C)C[C@H](C)[C@@H](O)[C@@H](C)/C=C\[C@@H](O)C[C@H](O)[C@H](C)/C=C/C=C\C(=O)OC [Compound 50, (2Z,4E,6R,7S,9S,10Z,12S,13R,14S,16S,19R,20S,21S,22S,23Z)-Methyl-7,9,13,19,21-penta-hydroxy-6,12,14,16,20,22-hexamethylhexacosa-2,4,10,23,25-pentaenoate] | 56 ± 16 nM | 42 ± 1 (3) % |  | caused tubulin assembly at temperatures lower than 30 °C | 149 ± 23.6 (4) | 219 ± 36 (4) | 479 ± 182 (4) | mid-nanomolar range | ca. 60% |  | 
C=C/C=C\[C@H](C)[C@@H]1OC(=O)/C=C\C=C\[C@@H](C)[C@@H](O)C[C@H](O)/C=C\[C@H](C)[C@H](O)[C@@H](C)C[C@@H](C)CC[C@@H](O)[C@@H]1C [dictyostatin-1, (8S,10S,14R,20R)-Tetrahydroxy-(7R,13S,15S,17S,21S)-pentamethyl-(22S)-((1S)-methylpenta-2,4-dienyl)oxacyclodocosa-3,5,11-trien-2-one, reference compound] | 0.69 ± 0.8 nM | 75 ± 5 (3) % | 88 ± 1 (3) % | far more potent than those of paclitaxel | 9.6 ± 2.4 (4) | 7.4 ± 2.5 (4) | 32.7 ± 11.7 (3) |  |  | 40 ± 3 (3) % | 
C=CC=CC(C)C1OC(=O)C=CC=CC(C)C(O)CC(O)C=CC(C)C(O)C(C)CC(C)CCC(O)C1C [Compound 59, (8S,10S,14R,20S)-Tetrahydroxy-(7R,13S,15S,17S,21s)-pentamethyl-(22S)-((1S)-methylpenta-2,4-dienyl)-oxacyclodocosa-3,5,11-trien-2-one] |  | 7 ± 2 (3) % |  | caused tubulin assembly at temperatures lower than 30 °C | 261 ± 91 (4) | 284 ± 108 (4) | 363 ± 146 (2) | mid-nanomolar range |  |  | 21 ± 14 nM
C=CC=CC(C)C1OC(=O)C=CC=CC(C)C(O)CC(O)C=CC(C)C(O)C(C)CCCCC(O)C1C [Compound 79, (8S,10S,14R,20R)-Tetrahydroxy-(7R,13S,15S,21S)-tetramethyl-(22S)-((1S)-methylpenta-2,4-dienyl)-oxacyclodocosa-3,5,11-trien-2-one] | 0.41 ± 0.52 nM | 48 ± 3 (3) % |  | especially potent among the analogs | 34.4 ± 10.5 (4) | 26.9 ± 2.9 (4) | 71.5 ± 18.0 (4) | essentially equipotent to 1 | ca. 60% |  | 
